ChEMBL document CHEMBL1201862, “PubChem BioAssay data set” (2004)
Calls of active or inactive are those of the source.

Legend:
Vero = experiment: cells; assay type: functional; conditions: Chlorocebus sabaeus
H9c2 = experiment: cells; assay type: functional, cell-based; conditions: Rattus norvegicus, H9c2, Myocardium;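 note: confirmatory concentration-response retest of ultra-high-throughput screening hits for modulation of myocardial damage; cell death induced by hydrogen peroxide oxidative stress; compound pretreatment for 60 min then peroxide exposure for 2 h; potency is for protecting the cells against peroxide damage rather than for killing them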
[1] = target: T1, Replicative DNA helicase DnaB (Mycobacterium tuberculosis, UniProt P9WMR3); experiment: DnaB intein splicing inhibitors, dose response, biochemical, cell-free fluorescence (AID 449749); assay type: functional
T1 sequence (P9WMR3 whole entry): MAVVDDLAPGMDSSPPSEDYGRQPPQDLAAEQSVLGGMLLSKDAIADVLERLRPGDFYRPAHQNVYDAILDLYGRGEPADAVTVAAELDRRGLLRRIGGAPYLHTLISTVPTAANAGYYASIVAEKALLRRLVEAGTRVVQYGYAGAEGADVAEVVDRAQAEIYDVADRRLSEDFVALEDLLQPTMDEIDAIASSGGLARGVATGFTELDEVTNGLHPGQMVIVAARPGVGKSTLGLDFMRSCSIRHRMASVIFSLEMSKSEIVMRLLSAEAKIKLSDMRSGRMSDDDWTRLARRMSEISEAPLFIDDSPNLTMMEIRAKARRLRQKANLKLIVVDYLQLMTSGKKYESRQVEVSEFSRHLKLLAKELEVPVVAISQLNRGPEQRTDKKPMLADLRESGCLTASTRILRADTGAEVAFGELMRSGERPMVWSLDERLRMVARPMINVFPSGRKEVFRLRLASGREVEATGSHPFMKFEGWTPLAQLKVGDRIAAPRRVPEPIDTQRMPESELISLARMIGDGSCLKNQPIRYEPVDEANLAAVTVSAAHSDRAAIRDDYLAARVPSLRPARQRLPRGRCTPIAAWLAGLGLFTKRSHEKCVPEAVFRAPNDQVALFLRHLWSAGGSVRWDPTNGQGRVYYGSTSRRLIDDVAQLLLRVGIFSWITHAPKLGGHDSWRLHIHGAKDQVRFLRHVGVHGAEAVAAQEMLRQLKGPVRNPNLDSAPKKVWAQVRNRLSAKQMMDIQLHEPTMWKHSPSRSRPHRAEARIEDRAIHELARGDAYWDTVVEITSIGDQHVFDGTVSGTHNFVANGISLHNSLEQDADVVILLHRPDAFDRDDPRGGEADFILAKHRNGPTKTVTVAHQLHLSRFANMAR

Protein RecA = target: T2, Protein RecA (Mycobacterium tuberculosis, UniProt P9WHJ3); experiment: Fluorescence Cell-Free Homogeneous Dose Retest to Identify Inhibitors of RecA-Intein Splicing Activity. [Related pubchem assays (depositor defined):AID2097, AID2223, AID489010, AID492950]; assay type: functional
T2 sequence (P9WHJ3 whole entry): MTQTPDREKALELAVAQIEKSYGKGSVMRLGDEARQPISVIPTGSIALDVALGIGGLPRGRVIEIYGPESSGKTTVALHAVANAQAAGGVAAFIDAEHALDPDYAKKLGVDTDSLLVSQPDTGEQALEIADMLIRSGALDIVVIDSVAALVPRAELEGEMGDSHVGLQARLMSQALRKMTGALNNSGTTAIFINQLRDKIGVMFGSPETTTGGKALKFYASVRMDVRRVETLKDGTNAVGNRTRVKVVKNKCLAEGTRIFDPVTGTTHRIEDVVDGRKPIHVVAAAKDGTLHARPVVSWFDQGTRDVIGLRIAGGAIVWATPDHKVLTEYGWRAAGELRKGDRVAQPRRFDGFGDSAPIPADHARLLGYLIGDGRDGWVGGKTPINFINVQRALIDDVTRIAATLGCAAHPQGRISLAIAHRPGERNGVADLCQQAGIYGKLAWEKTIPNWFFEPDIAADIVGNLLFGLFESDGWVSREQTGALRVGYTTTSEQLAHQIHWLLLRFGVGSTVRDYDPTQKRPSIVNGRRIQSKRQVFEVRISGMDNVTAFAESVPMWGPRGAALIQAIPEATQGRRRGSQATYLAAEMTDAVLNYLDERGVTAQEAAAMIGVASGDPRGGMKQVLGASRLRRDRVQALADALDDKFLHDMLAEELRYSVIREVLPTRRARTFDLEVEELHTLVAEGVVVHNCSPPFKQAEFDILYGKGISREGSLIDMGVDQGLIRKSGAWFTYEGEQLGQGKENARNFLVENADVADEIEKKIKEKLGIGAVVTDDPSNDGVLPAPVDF

[2] = C. albicans growth with fluconazole, confirmation, fluorescence, retest (AID 2467); assay type: functional, cell-based
[3] = NIH-3T3 fibroblast cytotoxicity, dose response, cytotoxicity control, cell-based, fluorescence, Alamar Blue, secondary assay (AID 2327); assay type: functional;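 note: NIH-3T3 mouse fibroblasts cultured with fluconazole at 8 µg/mL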
[4] = target: T3, Microphthalmia-associated transcription factor (Homo sapiens, UniProt O75030); experiment: TRPM1 promoter luciferase signal decrease, dose response, MITF inhibitor project, cell-based, SK-MEL-5, cherry-picked, set 3 (AID 493073); assay type: functional
T3 sequence (O75030 whole entry): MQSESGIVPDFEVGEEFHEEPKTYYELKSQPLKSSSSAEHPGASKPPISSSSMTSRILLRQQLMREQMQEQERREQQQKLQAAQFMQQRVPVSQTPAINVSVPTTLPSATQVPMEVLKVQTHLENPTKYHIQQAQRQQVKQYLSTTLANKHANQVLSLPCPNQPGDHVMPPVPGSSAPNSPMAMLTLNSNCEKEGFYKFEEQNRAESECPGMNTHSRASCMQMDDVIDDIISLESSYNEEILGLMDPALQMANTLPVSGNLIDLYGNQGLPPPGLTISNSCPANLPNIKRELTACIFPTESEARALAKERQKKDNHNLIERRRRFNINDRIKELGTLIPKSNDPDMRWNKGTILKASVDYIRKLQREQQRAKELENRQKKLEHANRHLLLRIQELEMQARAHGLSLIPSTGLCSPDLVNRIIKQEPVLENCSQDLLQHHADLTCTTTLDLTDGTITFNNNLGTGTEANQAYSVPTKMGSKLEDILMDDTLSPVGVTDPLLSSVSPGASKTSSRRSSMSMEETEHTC

[5] = cytotoxicity toward NIH3T3 fibroblasts, dose response, counter-screen, cell-based, ATP luminescence, mouse fibroblasts (AID 2010); assay type: functional;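 note: cells exposed to compound for about 90 hours before reading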
[6] = inhibitors of intracellular T. cruzi replication, confirmation, NIH3T3 host cells, beta-gal luminescence (AID 2044); assay type: functional, cell-based;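 note: intracellular parasites grown in NIH/3T3 mouse fibroblasts as host cells; luminescent beta-galactosidase reporter signal from transgenic T. cruzi replicating inside host cells; inhibitors lower the luminescence signal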
cells = assay type: functional
[7] = target: T4, Heat shock factor protein 1 (Mus musculus, UniProt P38532); experiment: HSF1 potentiators in luciferase reporter cells, confirmation, cell-based, NIH3T3, luminescence, dose retest (AID 435004); assay type: functional;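 note: stress induced by proteasome inhibitor MG132 added 30 min after compound; luciferase reporter driven by HSF1 response element in NIH3T3 cells; actives raise luminescence as potentiators of the MG132 stress response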
T4 sequence (P38532 whole entry): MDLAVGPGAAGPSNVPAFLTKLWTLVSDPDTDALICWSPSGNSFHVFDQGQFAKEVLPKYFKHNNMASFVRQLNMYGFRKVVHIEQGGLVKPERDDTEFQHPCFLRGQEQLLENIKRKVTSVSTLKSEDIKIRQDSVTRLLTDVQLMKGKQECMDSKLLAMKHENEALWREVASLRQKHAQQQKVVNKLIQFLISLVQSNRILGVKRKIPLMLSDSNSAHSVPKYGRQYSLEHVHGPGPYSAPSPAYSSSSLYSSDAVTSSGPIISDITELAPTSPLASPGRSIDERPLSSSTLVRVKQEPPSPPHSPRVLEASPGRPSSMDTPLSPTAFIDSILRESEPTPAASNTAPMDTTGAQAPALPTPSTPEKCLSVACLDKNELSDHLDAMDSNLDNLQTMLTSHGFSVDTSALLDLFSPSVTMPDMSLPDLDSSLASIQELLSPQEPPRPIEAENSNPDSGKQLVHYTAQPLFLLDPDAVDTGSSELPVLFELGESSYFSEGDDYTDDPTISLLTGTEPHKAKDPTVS

[8] = target: T5, Calpain-2 catalytic subunit (Sus scrofa, UniProt P43367); experiment: pig calpain II inhibitor potency, dose response, biochemical, fluorogenic peptide substrate (AID 1420); assay type: functional
T5 sequence (P43367 whole entry): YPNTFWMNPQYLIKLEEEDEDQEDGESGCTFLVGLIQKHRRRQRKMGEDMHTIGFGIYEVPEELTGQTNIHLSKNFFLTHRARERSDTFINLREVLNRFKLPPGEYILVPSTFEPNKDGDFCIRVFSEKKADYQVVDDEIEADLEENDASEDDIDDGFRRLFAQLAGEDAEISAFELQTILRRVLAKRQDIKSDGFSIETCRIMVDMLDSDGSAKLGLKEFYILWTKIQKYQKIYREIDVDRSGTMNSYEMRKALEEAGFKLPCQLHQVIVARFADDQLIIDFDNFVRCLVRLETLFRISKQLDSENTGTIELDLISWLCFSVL

[9] = HEp-2 cell cytotoxicity, dose response, cytotoxicity control for RSV inhibitor project, HTS (AID 2410); assay type: functional; conditions: human respiratory syncytial virus
[10] = inhibitors of clade B AD8 Env fusion, dose response, cell-based, cherry-pick (AID 652062); assay type: functional;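 note: luciferase signal from cell-cell fusion driven by HIV-1 clade B AD8 Env; potency is for inhibitors of fusion seen as a drop in luminescence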
Cytochrome P450 2D6 = Cytochrome P450 2D6 (Homo sapiens, UniProt P10635);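 note: CYP2D6 member of a cytochrome P450 panel assay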
Cytochrome P450 2D6, sequence (P10635 whole entry): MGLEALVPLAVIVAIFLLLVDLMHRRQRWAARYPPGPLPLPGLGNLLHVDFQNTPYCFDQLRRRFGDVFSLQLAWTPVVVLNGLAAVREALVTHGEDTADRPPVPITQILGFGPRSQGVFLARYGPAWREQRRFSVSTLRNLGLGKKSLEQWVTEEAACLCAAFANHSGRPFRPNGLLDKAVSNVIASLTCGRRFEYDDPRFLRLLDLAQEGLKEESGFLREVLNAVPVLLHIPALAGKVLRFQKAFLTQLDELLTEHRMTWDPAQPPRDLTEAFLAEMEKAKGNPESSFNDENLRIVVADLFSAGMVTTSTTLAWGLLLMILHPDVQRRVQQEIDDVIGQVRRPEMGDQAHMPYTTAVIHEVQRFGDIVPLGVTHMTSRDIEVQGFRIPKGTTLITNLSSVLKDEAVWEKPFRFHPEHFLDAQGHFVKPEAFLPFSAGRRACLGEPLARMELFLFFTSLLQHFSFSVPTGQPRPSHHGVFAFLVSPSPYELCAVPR

CC(C)CC(=O)NC(=S)NNC(=O)c1ccc([N+](=O)[O-])cc1
CC50 (Vero): 24.6 µM (active)

CC(OC(=O)Cc1nnc(O)c2ccccc12)C(=O)Nc1cc(Cl)cc(Cl)c1 (centres undefined)
IC50 (H9c2): 20.8 µM (active)

O=C(NCc1ccco1)/C(=C/c1cccc(C(F)(F)F)c1)c1nc2ccccc2[nH]1
CC50 (Vero): 13.7 µM (active) | AC50 [1]: > 380 µM (inactive) | EC50 (Protein RecA): 54.4 µM (active)

Cc1ccc(C)c(S(=O)(=O)Nc2ccccc2C(=O)Nc2cc(C)on2)c1
EC50 [2]: 1.28 µM (active) | EC50 [3]: > 160 µM (inactive)

Cc1cccc(N2C(=O)NC(=O)/C(=C/Nc3ccccc3N)C2=O)c1
EC50 [2]: > 38 µM (not active) | EC50 [3]: > 160 µM (inactive)

CC(=O)Nc1ccc(C(=O)N/N=C/c2ccccc2OC(=O)c2ccc(Cl)cc2)cc1
IC50 (H9c2): 8.26 µM (active)

O=C(/C=C/c1ccc([N+](=O)[O-])s1)N1CCCCC1
AC50 [4]: 4.16 µM (active)

CCOc1cc(/C=N\NC(=O)c2ccc(NC(=O)C(C)(C)C)cc2)ccc1OC(=O)c1cccc(C)c1
IC50 (H9c2): > 79 µM (inactive)

Oc1nnc(CNc2ccc(C(F)(F)F)cc2)c2ccccc12
IC50 (H9c2): 27.5 µM (active)

COc1cccc2s/c(=N/C(=O)CS(=O)(=O)c3ccc(Cl)cc3)n(C)c12
EC50 [2]: 2.16 µM (active) | EC50 [3]: > 160 µM (inactive) | EC50 [5]: > 60 µM (not active) | EC50 [6]: 0.34 µM (active)

O=C(NCC1(c2ccccc2)CCCC1)C1(c2ccccc2)CCCC1
AC50 [1]: 10 µM (active) | EC50 (Protein RecA): 53.3 µM (active)

COc1cc(C(=O)NNC(=O)c2ccc3ccccc3n2)cc(OC)c1OC
IC50 (H9c2): 8.15 µM (active)

Cc1ccsc1/C=N/NC(=O)c1ccncc1
IC50 (cells): 3.02 µM (active)

COc1ccnc(Oc2ccc(F)cc2)c1C(=O)N=CNOCc1ccc(Cl)cc1Cl
IC50 (H9c2): > 79 µM (inactive)

CCOC(=O)c1sc(C)c2c1NC(C)(c1cccc3ccccc13)NC2=O (centres undefined)
EC50 [7]: > 260 µM (inactive)

Cc1ccccc1NC(=O)CSc1nc(Nc2ccccc2)nc(N2CCOCC2)n1
EC50 [7]: > 260 µM (inactive)

Cc1ccc(CNC(=O)c2oc3ccc(S(=O)(=O)N4CCOCC4)cc3c2C)cc1
IC50 (H9c2): > 79 µM (inactive) | IC50 [8]: 23.5 µM (not active)

Cn1c(=O)oc2cc(S(=O)(=O)N3CCCCC3)ccc21
EC50 [7]: > 260 µM (inactive)

CSc1nn(-c2ccc(C(=O)OCC(=O)NC(=O)NC(C)C)cc2)c(=S)s1
IC50 (cells): 13.2 µM (active)

Cn1c(/C=C/c2cccc([N+](=O)[O-])c2)c([N+](=O)[O-])c(=O)n(C)c1=O
CC50 [9]: 36 µM (active) | EC50 [2]: 7.56 µM (active) | CC50 (Vero): 22.7 µM (active) | AC50 [4]: 27.8 µM (active) | EC50 [3]: 58.4 µM (active)

Cn1c(CN2CCCCC2)nc2cc(NC(=O)c3ccc(Cl)cc3)ccc21
AC50 [10]: 28.7 µM (active) | AC50 (Cytochrome P450 2D6): 0.0316 µM (inconclusive)

O=C(NCCc1ccc(F)cc1)C(=O)Nc1cc2c3c(c1)CC(=O)N3CCC2
IC50 (H9c2): > 79 µM (inactive)

O=C(OCc1nc2ccccc2s1)c1ccc(Br)o1
IC50 (cells): 11.9 µM (active)

CCN(C(=O)c1ccc2c(Cl)c3c(nc2c1)CCC3)c1ccc(C)c(C)c1
AC50 [1]: 14.1 µM (active) | EC50 (Protein RecA): 2.59 µM (active)

CC(c1ccc(Cl)cc1)n1c(S)nnc1-c1ccc2ccccc2n1 (centres undefined)
EC50 [2]: 4.24 µM (active) | AC50 (Cytochrome P450 2D6): 39.8 µM (inconclusive) | EC50 [3]: > 160 µM (inactive)

CC(=O)NC(=O)NC1OC(=O)C(Cl)=C1Cl (centres undefined)
EC50 [7]: > 260 µM (inconclusive)

O=C(CCCSc1nc2ccccc2[nH]1)N1CCN(c2ccc([N+](=O)[O-])cc2)CC1
EC50 [7]: > 260 µM (inactive)

Cc1cccc(NC(=O)CCSc2nnc(Cc3ccccc3)o2)c1
IC50 (cells): 39.8 µM (active)

O=C(Cn1[nH]c(=O)c2ccccc2c1=O)NC1CCCCCC1
IC50 (H9c2): 25.3 µM (active)

Clc1ccccc1-c1nc2ccccc2c2nc3ccccc3n12
EC50 [2]: 12.2 µM (active) | EC50 [3]: > 150 µM (inactive)

O=C(Nc1nc2ccccc2[nH]1)c1ccc(OC(F)F)cc1
EC50 [7]: > 260 µM (inconclusive)

CCCCN1CCc2c1nc1ccc(Br)cc1c2N
CC50 [9]: 14.1 µM (active) | AC50 [4]: 12.2 µM (active)

Cc1c(O)cccc1C(=O)N[C@@H](CSc1ccccc1)[C@H](O)CN1C[C@H]2CCCC[C@H]2C[C@H]1C(=O)NC(C)(C)C
CC50 (Vero): > 25 µM (active)

O=C(CCl)N1CCN(S(=O)(=O)c2ccc3ccccc3c2)CC1
AC50 [1]: 12.7 µM (active) | EC50 (Protein RecA): 1.58 µM (active)
